Experimental data: ChEMBL document CHEMBL3763120, “Phenyl Benzenesulfonylhydrazides Exhibit Selective Indoleamine 2,3-Dioxygenase Inhibition with Potent in Vivo Pharmacodynamic Activity and Antitumor Efficacy” (J Med Chem, 2016)

Legend:
[1] = Volume of distribution at steady state in Sprague-Dawley rat plasma at 2 mg/kg, iv by LC-MS/MS analysis; format: ADME, organism-based; conditions: Sprague-Dawley, plasma, read-out: Vdss
Mus musculus [2] = assay: Decrease in ratio of kynurenine to tryptophan in C57BL/6 mouse at 50 mg/kg, po after 5 hrs by LC-MS/MS analysis; format: functional; conditions: C57BL/6, po
CT26 [3] = assay: Antitumor activity against mouse CT26 cells xenografted in Balb/c mouse assessed as median time to end point at 400 mg/kg, po bid for 22 days; format: functional
CT26 [4] = assay: Antitumor activity against mouse CT26 cells xenografted in Balb/c mouse assessed as median time to end point at 100 mg/kg, po bid for 22 days; format: functional
CT26 [5] = assay: Antitumor activity against mouse CT26 cells xenografted in Balb/c mouse assessed as tumor growth delay at 400 mg/kg, po bid for 22 days; format: functional; conditions: 528 h, read-out: TGI
CT26 [6] = assay: Antitumor activity against mouse CT26 cells xenografted in Balb/c mouse assessed as tumor growth delay at 200 mg/kg, po bid for 22 days; format: functional; conditions: 528 h, read-out: TGI
Mus musculus [7] = assay: Toxicity in BalB/c mouse xenografted with CT26 cells assessed as change in body weight at 100 to 400 mg/kg, po bid for 22 days; format: organism-based; conditions: in vivo, 528 h
CT26 [8] = assay: Antitumor activity against mouse CT26 cells xenografted in Balb/c mouse assessed as reduction in tumor weight at 100 mg/kg bid for 18 days administered via oral gavage; format: functional; conditions: 432 h
Mus musculus [9] = assay: Decrease in ratio of kynurenine to tryptophan in Balb/c mouse tumor xenografted with CT26 cells at 100 mg/kg bid for 18 days administered via oral gavage after 2 hrs by LC-MS/MS analysis; format: functional
hERG (KCNH2) = hERG (KCNH2) (Homo sapiens, UniProt Q12809); assay: Inhibition of human ERG at 10 uM
Homo sapiens [10] = species: Homo sapiens; assay: Inhibition of Platelet-activating factor (unknown origin) at 10 uM
[11] = target: Mu-type opioid receptor (Homo sapiens) (UniProt P35372); assay: Inhibition of Opiate mu receptor (unknown origin) at 10 uM
[12] = target: Kappa-type opioid receptor (Homo sapiens) (UniProt P41145); assay: Inhibition of Opiate kappa receptor (unknown origin) at 10 uM
Chain of Kappa-type opioid receptor (Homo sapiens) (P41145 whole entry): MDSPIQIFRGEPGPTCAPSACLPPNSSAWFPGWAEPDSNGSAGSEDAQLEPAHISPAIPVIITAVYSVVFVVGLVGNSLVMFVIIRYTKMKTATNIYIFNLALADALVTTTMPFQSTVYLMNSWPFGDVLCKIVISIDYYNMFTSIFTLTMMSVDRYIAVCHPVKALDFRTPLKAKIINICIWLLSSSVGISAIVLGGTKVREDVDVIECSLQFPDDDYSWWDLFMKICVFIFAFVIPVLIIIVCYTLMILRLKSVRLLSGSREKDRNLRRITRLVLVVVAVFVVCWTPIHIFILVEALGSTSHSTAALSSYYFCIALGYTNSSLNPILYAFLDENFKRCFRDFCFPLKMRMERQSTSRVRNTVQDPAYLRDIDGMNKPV

[13] = target: Delta-type opioid receptor (Homo sapiens) (UniProt P41143); assay: Inhibition of Opiate delta1 receptor (unknown origin) at 10 uM
[14] = target: Acetylcholine receptor subunit alpha (Homo sapiens) (UniProt P02708); assay: Inhibition of Nicotinic acetylcholine alpha1 bungarotoxin binding site (unknown origin) at 10 uM
Chain of Acetylcholine receptor subunit alpha (Homo sapiens) (P02708 whole entry): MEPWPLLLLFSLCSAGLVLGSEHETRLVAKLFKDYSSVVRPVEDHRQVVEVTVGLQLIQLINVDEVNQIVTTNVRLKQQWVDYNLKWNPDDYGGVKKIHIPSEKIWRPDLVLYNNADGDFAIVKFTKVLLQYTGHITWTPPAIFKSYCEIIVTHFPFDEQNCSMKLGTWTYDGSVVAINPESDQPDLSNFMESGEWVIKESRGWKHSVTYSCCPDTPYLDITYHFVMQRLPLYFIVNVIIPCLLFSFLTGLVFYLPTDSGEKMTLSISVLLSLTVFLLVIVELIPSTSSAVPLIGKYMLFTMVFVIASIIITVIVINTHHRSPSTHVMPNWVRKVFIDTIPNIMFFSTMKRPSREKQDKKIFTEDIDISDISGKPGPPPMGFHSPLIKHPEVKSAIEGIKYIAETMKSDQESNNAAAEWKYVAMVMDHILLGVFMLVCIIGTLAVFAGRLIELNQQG

Homo sapiens [15] = species: Homo sapiens; assay: Inhibition of Nicotinic acetylcholine receptor (unknown origin) at 10 uM
[16] = target: Neuropeptide Y receptor type 2 (Homo sapiens) (UniProt P49146); assay: Inhibition of Neuropeptide Y2 receptor (unknown origin) at 10 uM
Chain of Neuropeptide Y receptor type 2 (Homo sapiens) (P49146 whole entry): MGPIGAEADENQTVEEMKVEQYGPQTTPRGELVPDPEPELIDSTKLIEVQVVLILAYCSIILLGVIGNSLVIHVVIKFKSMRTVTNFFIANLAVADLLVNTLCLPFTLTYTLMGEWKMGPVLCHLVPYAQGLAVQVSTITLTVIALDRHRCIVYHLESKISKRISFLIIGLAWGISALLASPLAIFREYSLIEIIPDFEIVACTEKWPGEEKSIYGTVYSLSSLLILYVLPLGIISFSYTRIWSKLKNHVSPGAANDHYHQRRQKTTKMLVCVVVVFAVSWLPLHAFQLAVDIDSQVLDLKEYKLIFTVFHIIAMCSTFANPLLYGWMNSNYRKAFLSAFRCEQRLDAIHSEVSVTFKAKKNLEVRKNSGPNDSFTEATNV

[17] = target: Neuropeptide Y receptor type 1 (Homo sapiens) (UniProt P25929); assay: Inhibition of Neuropeptide Y1 receptor (unknown origin) at 10 uM
[18] = target: Muscarinic acetylcholine receptor M2 (Homo sapiens) (UniProt P08172); assay: Inhibition of Muscarinic M2 receptor (unknown origin) at 10 uM
[19] = target: Muscarinic acetylcholine receptor M1 (Homo sapiens) (UniProt P11229); assay: Inhibition of Muscarinic M1 receptor (unknown origin) at 10 uM
Homo sapiens [20] = species: Homo sapiens; assay: Inhibition of MT1 receptor (unknown origin) at 10 uM
[21] = target: Histamine H3 receptor (Homo sapiens) (UniProt Q9Y5N1); assay: Inhibition of Histamine H3 receptor (unknown origin) at 10 uM
[22] = target: Histamine H1 receptor (Homo sapiens) (UniProt P35367); assay: Inhibition of Histamine H1 receptor (unknown origin) at 10 uM
Chain of Histamine H1 receptor (Homo sapiens) (P35367 whole entry): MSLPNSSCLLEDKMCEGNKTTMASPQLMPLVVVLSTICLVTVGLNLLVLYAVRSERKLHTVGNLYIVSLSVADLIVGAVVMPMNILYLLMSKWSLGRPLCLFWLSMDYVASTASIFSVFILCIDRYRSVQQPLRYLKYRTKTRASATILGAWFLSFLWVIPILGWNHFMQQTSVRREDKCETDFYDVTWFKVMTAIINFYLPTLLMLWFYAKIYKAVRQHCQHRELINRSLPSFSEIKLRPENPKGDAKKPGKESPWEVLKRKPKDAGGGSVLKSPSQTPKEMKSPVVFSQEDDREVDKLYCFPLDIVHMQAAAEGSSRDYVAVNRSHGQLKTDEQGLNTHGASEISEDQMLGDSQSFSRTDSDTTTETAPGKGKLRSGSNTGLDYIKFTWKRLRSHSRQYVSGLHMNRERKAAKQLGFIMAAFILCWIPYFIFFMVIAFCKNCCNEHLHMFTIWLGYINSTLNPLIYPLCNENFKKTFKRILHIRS

[23] = target: Glutamate [NMDA] receptor (Homo sapiens) (UniProt Q05586+Q12879+Q13224+O15399+O60391+Q14957+Q8TCU5); assay: Inhibition of NMDA receptor agonist binding site (unknown origin) at 10 uM
Homo sapiens [24] = species: Homo sapiens; assay: Inhibition of Glutamate kainate receptor (unknown origin) at 10 uM
Homo sapiens [25] = species: Homo sapiens; assay: Inhibition of GABAA receptor central muscimol site (unknown origin) at 10 uM
[26] = target: Epidermal growth factor receptor (Homo sapiens) (UniProt P00533); assay: Inhibition of EGF receptor (unknown origin) at 10 uM
[27] = target: D(2) dopamine receptor (Homo sapiens) (UniProt P14416); assay: Inhibition of Dopamine D2S receptor (unknown origin) at 10 uM
[28] = target: Cannabinoid receptor 1 (Homo sapiens) (UniProt P21554); assay: Inhibition of CB1 receptor (unknown origin) at 10 uM
Chain of Cannabinoid receptor 1 (Homo sapiens) (P21554 whole entry): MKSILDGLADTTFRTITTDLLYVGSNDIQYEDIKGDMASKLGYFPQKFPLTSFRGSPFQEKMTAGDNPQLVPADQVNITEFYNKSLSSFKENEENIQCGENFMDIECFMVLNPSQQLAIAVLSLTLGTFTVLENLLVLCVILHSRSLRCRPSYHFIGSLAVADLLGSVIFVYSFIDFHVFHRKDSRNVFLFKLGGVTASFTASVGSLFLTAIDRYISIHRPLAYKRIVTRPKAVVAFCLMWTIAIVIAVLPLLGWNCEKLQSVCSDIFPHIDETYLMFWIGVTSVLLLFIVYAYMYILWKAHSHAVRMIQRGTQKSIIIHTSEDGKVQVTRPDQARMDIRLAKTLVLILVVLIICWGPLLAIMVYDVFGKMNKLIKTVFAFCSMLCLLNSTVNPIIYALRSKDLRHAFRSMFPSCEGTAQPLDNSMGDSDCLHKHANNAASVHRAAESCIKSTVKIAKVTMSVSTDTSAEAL

[29] = target: L-type calcium channel, dihydropyridine binding site (Homo sapiens, UniProt O60840+Q01668+Q13698+Q13936); assay: Inhibition of L-type calcium channel dihydropyridine binding site (unknown origin) at 10 uM; format: protein assay
[30] = target: B2 bradykinin receptor (Homo sapiens) (UniProt P30411); assay: Inhibition of Bradykinin B2 receptor (unknown origin) at 10 uM
[31] = target: B1 bradykinin receptor (Homo sapiens) (UniProt P46663); assay: Inhibition of Bradykinin B1 receptor (unknown origin) at 10 uM
Chain of B1 bradykinin receptor (Homo sapiens) (P46663 whole entry): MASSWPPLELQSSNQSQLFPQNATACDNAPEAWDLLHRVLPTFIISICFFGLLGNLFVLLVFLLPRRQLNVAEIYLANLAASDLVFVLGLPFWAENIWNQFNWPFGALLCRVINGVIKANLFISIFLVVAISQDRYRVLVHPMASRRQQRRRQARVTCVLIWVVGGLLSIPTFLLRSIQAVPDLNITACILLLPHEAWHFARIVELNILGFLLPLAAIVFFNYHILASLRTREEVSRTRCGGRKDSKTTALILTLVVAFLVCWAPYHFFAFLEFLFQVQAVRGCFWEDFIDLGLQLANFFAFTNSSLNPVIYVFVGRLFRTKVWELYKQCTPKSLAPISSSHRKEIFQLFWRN

[32] = target: Alpha-2A adrenergic receptor (Homo sapiens) (UniProt P08913); assay: Inhibition of Adrenergic alpha2A receptor (unknown origin) at 10 uM
Chain of Alpha-2A adrenergic receptor (Homo sapiens) (P08913 whole entry): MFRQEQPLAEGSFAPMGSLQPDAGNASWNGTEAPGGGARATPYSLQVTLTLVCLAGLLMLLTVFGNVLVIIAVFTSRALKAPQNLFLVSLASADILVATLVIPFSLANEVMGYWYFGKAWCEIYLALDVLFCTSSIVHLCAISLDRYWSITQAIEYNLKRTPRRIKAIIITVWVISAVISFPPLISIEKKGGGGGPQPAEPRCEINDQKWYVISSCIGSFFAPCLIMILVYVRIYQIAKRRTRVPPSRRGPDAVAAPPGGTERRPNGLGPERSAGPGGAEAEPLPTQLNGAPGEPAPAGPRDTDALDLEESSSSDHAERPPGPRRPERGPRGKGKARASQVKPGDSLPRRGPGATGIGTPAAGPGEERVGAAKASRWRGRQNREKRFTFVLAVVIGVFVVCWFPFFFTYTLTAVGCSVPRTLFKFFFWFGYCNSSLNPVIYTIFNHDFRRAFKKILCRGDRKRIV

[33] = target: Alpha-1B adrenergic receptor (Homo sapiens) (UniProt P35368); assay: Inhibition of Adrenergic alpha1B receptor (unknown origin) at 10 uM
[34] = target: Adenosine receptor A2a (Homo sapiens) (UniProt P29274); assay: Inhibition of Adenosine A2A receptor (unknown origin) at 10 uM
Chain of Adenosine receptor A2a (Homo sapiens) (P29274 whole entry): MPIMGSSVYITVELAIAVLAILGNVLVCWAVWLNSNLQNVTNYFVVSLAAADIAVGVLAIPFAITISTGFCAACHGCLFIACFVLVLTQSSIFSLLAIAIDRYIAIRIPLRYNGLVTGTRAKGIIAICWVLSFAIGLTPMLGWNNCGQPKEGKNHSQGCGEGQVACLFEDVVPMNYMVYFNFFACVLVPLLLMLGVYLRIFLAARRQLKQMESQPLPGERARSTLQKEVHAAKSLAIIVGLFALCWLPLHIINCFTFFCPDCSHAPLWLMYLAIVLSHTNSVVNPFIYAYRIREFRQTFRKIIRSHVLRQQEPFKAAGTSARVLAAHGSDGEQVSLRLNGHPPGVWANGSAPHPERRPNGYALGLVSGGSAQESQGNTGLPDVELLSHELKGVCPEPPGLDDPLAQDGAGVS

[35] = target: Adenosine receptor A1 (Homo sapiens) (UniProt P30542); assay: Inhibition of Adenosine A1 receptor (unknown origin) at 10 uM
Chain of Adenosine receptor A1 (Homo sapiens) (P30542 whole entry): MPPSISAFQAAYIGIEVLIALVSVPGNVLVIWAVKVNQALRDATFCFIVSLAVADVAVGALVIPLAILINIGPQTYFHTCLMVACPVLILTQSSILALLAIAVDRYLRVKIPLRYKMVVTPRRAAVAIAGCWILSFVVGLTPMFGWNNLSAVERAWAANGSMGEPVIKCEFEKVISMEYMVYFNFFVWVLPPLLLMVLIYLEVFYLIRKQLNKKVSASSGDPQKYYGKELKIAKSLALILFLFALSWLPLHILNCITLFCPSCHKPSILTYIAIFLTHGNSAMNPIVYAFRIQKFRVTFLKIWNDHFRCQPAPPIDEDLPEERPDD

[36] = target: 5-hydroxytryptamine receptor 3A (Homo sapiens) (UniProt P46098); assay: Inhibition of 5HT3 receptor (unknown origin) at 10 uM
Chain of 5-hydroxytryptamine receptor 3A (Homo sapiens) (P46098 whole entry): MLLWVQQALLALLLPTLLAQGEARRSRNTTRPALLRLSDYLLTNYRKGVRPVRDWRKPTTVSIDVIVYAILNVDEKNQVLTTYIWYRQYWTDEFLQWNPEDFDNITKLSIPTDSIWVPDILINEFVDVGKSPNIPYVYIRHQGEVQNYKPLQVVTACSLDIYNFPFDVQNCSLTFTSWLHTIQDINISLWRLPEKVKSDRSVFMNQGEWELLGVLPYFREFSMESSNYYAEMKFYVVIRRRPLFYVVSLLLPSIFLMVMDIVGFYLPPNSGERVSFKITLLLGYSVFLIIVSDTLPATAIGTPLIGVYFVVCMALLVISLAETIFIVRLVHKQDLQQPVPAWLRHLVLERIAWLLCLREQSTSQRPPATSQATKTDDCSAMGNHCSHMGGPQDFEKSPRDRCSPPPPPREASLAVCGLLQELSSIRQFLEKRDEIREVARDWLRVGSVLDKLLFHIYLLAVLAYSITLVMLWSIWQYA

[37] = target: Thyroid hormone receptor (Homo sapiens) (UniProt P10827+P10828); assay: Inhibition of Thyroid hormone receptor (unknown origin) at 10 uM; format: protein-complex assay
[38] = target: Sodium-dependent dopamine transporter (Homo sapiens) (UniProt Q01959); assay: Inhibition of DAT (unknown origin) at 10 uM
Chain of Sodium-dependent dopamine transporter (Homo sapiens) (Q01959 whole entry): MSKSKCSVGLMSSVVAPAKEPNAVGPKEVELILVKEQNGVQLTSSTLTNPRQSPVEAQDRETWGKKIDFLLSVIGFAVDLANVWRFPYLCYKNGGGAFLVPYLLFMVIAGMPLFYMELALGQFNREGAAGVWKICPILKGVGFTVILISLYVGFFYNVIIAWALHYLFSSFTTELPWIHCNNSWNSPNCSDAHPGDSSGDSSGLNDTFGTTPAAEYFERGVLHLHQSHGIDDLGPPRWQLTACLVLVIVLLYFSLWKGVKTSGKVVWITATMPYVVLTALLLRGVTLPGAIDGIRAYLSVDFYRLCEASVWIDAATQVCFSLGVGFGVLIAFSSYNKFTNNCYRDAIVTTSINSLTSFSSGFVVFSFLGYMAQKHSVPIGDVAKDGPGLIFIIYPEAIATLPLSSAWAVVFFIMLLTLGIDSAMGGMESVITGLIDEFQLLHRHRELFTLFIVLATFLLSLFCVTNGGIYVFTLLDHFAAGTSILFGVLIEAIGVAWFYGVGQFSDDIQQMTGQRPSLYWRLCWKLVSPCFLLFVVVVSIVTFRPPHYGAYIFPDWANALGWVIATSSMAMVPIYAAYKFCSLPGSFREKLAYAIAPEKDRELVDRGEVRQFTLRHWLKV

[39] = target: Indoleamine 2,3-dioxygenase 1 (Homo sapiens, UniProt P14902); assay: Inhibition of human Indoleamine 2,3-dioxygenase using L-tryptophan as substrate by emission fluorescence analysis
[40] = target: 5-hydroxytryptamine receptor 1A (Homo sapiens) (UniProt P08908); assay: Inhibition of 5HT-1A (unknown origin) at 10 uM
[41] = Cmax in Sprague-Dawley rat plasma at 10 mg/kg, po by LC-MS/MS analysis; format: ADME, organism-based; parameters: dose 10 mg/kg, route oral
[42] = AUC (0 to infinity) in Sprague-Dawley rat plasma at 10 mg/kg, po by LC-MS/MS analysis; format: ADME, organism-based; parameters: dose 10 mg/kg, route oral, time infinity
[43] = Clearance in Sprague-Dawley rat plasma at 2 mg/kg, iv by LC-MS/MS analysis; format: ADME, organism-based

O=C1Cc2cc(S(=O)(=O)NNc3ccc(Br)cc3)ccc2N1
Vd [1]: 1.2 L/kg | inhibition in vivo at 50 mg/kg (Mus musculus [2]): 42% | Time (CT26 [3]): 7.4 days | Time (CT26 [4]): 4 days | inhibition in vivo at 400 mg/kg (CT26 [5]): 73% | inhibition in vivo at 200 mg/kg (CT26 [6]): 63% | Activity (Mus musculus [7]): Non-toxic | inhibition in vivo at 100 mg/kg (CT26 [8]): 64% | inhibition in vivo at 100 mg/kg (Mus musculus [9]): 58% | inhibition at 10 µM (hERG (KCNH2)): < 50% | inhibition (Homo sapiens [10]): < 50% | inhibition [11]: < 50% | inhibition [12]: < 50% | inhibition [13]: < 50% | inhibition [14]: < 50% | inhibition (Homo sapiens [15]): < 50% | inhibition [16]: < 50% | inhibition [17]: < 50% | inhibition [18]: < 50% | inhibition [19]: < 50% | inhibition (Homo sapiens [20]): < 50% | inhibition [21]: < 50% | inhibition [22]: < 50% | inhibition [23]: < 50% | inhibition (Homo sapiens [24]): < 50% | inhibition (Homo sapiens [25]): < 50% | inhibition [26]: < 50% | inhibition [27]: < 50% | inhibition [28]: < 50% | inhibition at 10 µM [29]: < 50% | inhibition [30]: < 50% | inhibition [31]: < 50% | inhibition [32]: < 50% | inhibition [33]: < 50% | inhibition [34]: < 50% | inhibition [35]: < 50% | inhibition [36]: < 50% | inhibition [37]: < 50% | inhibition [38]: < 50% | IC50 [39]: 35.8 nM | inhibition [40]: < 50% | Cmax [41]: 2590 ng/mL | AUC(0-inf) [42]: 7200 ng·h/mL | clearance [43]: 15.9 mL/min/kg
